Data published in patent US6803378B2, “HIV integrase inhibitors” (Bristol-Myers Squibb Company, priority 2000, dated 2004).

Tests used:
HIV Integrase [1] = molecular target: T1, HIV Integrase (Human immunodeficiency virus type 1 group M subtype B, UniProt P04585); assay: In vitro activity against integrase, Method B (SPA assay); format: biochemical; settings: read-out: Percent inhibition of HIV Integrase at 70 uM
T1 construct: 0.26 ng of recombinant integrase was then incubated with the beads
Description: (§1) The in vitro activities, against integrase, of compounds of the present invention were measured by one of the following three methods.
(§2) In Method B, the in vitro activity against integrase was measured by binding, for each reaction, 5 pmole of biotin labeled substrate DNA to 100 ug of Streptavidin coated PVT SPA beads (Amersham Pharmacia Biotech). 0.26 ng of recombinant integrase was then incubated with the beads for 90 min at 37° C. Unbound enzyme was removed by washing the complex followed by addition of inhibitors and 0.1 fmol of P33 labeled target DNA. Reaction was stopped by adding EDTA to a final concentration of 10 mM. Samples were counted in TopCountNXT (Packard) and the CPM was used as a measure of integration. Reaction condition was as described in A. Engelman and R. Craigie, J. Virol. 69, 5908-5911 (1995). The sequences of substrate and target DNA were described in Nucleic Acid Research 22, 1121-1122 (1994).

HIV Integrase [2] = molecular target: T1, HIV Integrase; assay: In vitro activity against integrase, Method C (electroluminescence, ECL assay); format: biochemical; settings: read-out: Percent inhibition of HIV Integrase at 70 uM
Description: as §1, §2
Method C (Electroluminesence Assay):
The ECL assay of Method C is essentially the same as the SPA assay of Method B, except that 0.5 μg of Streptavidin coated magnetic beads and 0.5 pmol Ru labeled target DNA were used for each reaction instead of SPA beads and P33 labeled DNA. The samples were read in a M8 analyzer (IGEN International, Inc).

## O=C(O)/C(O)=C/C(=O)N(Cc1ccc(F)cc1)Cc1ccco1 [Compound 74, 3-[(4-Fluoro-benzyl)-furan-2-ylmethyl-carbamoyl]-2-hydroxy-acrylic acid]
HIV Integrase [1]
  inhibition at 70 µM: 98%

## CN(CCCc1ccc(F)cc1)C(=O)/C=C(\O)C(=O)O [Compound 46, 3-{[3-(4-Fluoro-phenyl)-propyl]-methyl-carbamoyl}-2-hydroxy-acrylic acid]
HIV Integrase [2]
  inhibition at 70 µM: 99%

## CN(Cc1ccc(F)c(F)c1)C(=O)/C=C(\O)C(=O)O [Compound 59, 3-[(3,4-Difluoro-benzyl)-methyl-carbamoyl]-2-hydroxy-acrylic acid]
HIV Integrase [1]
  inhibition at 70 µM: 98%

## O=C(O)/C(O)=C/C(=O)N(Cc1ccc(Cl)cc1)Cc1ccc(Cl)cc1 [Compound 57, 3-[Bis-(4-chloro-benzyl)-carbamoyl]-2-hydroxy-acrylic acid]
HIV Integrase [1]
  inhibition at 70 µM: 99%

## CN(Cc1ccc2ccccc2c1)C(=O)/C=C(\O)C(=O)O [Compound 54, 2-Hydroxy-3-(methyl-naphthalen-2-ylmethyl-carbamoyl)-acrylic acid]
HIV Integrase [1]
  inhibition at 70 µM: 99%

## CN(Cc1ccc(F)c(Br)c1)C(=O)C=C(O)C(=O)O [Compound 48, 3-[(3-Bromo-4-fluoro-benzyl)-methyl-carbamoyl]-2-hydroxy-acrylic acid]
HIV Integrase [2]
  inhibition at 70 µM: 99%

## CN(Cc1ccc(Cl)cc1)C(=O)/C=C(\O)C(=O)O [Compound 45, 3-[(4-Chloro-benzyl)-methyl-carbamoyl]-2-hydroxy-acrylic acid]
HIV Integrase [2]
  inhibition at 70 µM: 99%

## CN(Cc1ccco1)C(=O)/C=C(\O)C(=O)O [Compound 75, 3-(Furan-2-ylmethyl-methyl-carbamoyl)-2-hydroxy-acrylic acid]
HIV Integrase [2]
  inhibition at 70 µM: 91%

## Cc1ccc(CN(C(=O)/C=C(\O)C(=O)O)c2ccc(F)cc2)cc1 [Compound 73, 3-[(4-Fluoro-phenyl)-(4-methyl-benzyl)-carbamoyl]-2-hydroxy-acrylic acid]
HIV Integrase [1]
  inhibition at 70 µM: 99%

## O=C(O)/C(O)=C/C(=O)N(Cc1ccc(F)cc1)c1ccc(Cl)cc1 [Compound 70, 3-[(4-Chloro-phenyl)-(4-fluoro-benzyl)-carbamoyl]-2-hydroxy-acrylic acid]
HIV Integrase [1]
  inhibition at 70 µM: 92%

## COc1ccc(CN(Cc2ccc(F)cc2)C(=O)/C=C(\O)C(=O)O)cc1Cl [Compound 76, 3-[(3-Chloro-4-methoxy-benzyl)-(4-fluoro-benzyl)-carbamoyl]-2-hydroxy-acrylic acid]
HIV Integrase [1]
  inhibition at 70 µM: 99%

## O=C(O)/C(O)=C/C(=O)N(Cc1ccc(F)cc1)CC1CC1c1ccccc1 (stereo not shown) [Compound 52, 3-[(4-Fluoro-benzyl)-(2-phenyl-cyclopropylmethyl)-carbamoyl]-2-hydroxy-acrylic acid]
HIV Integrase [2]
  inhibition at 70 µM: 99%

## CC(C)N(CCCc1ccccc1)C(=O)/C=C(\O)C(=O)O [Compound 44, 2-Hydroxy-3-[isopropyl-(3-phenyl-propyl)-carbamoyl]-acrylic acid]
HIV Integrase [2]
  inhibition at 70 µM: 95.5%

## O=C(O)/C(O)=C/C(=O)N(Cc1ccc(F)cc1)Cc1ccc2ccccc2c1 [Compound 53, 3-[(4-Fluoro-benzyl)-naphthalen-2-ylmethyl-carbamoyl]-2-hydroxy-acrylic acid]
HIV Integrase [1]
  inhibition at 70 µM: 99%

## O=C(O)/C(O)=C/C(=O)N(CCOc1ccc(F)cc1)Cc1ccc(F)cc1 [Compound 47, 3-{(4-Fluoro-benzyl)-[2-(4-fluoro-phenoxy)-ethyl]-carbamoyl}-2-hydroxy-acrylic acid]
HIV Integrase [2]
  inhibition at 70 µM: 99%

## CN(Cc1ccccc1Cc1ccc(F)cc1)C(=O)/C=C(\O)C(=O)O [Compound 81, 3-{[2-(4-Fluoro-benzyl)-benzyl]-methyl-carbamoyl}-2-hydroxy-acrylic acid]
HIV Integrase [1]
  inhibition at 70 µM: 95%

## CN(C(=O)/C=C(\O)C(=O)O)C(Cc1ccc(F)cc1)c1ccc(F)cc1 (stereo not shown) [Compound 78, 3-{[1,2-Bis-(4-fluoro-phenyl)-ethyl]-methyl-carbamoyl}-2-hydroxy-acrylic acid]
HIV Integrase [2]
  inhibition at 70 µM: 75%

## O=C(CCCCCNC(=O)/C(O)=C/C(=O)N(CCCc1ccccc1Cl)Cc1ccc(F)cc1)NS(=O)(=O)c1ccccc1 [Compound 147, 2-Hydroxy-but-2-enedioic acid 1-[(6-benzenesulfonylamino-6-oxo-hexyl)-amide] 4-[[3-(2-chloro-phenyl)-propyl]-(4-fluoro-benzyl)-amide]]
HIV Integrase [2]
  inhibition at 70 µM: 98%

## CN(Cc1cccc(Cl)c1)C(=O)/C=C(\O)C(=O)O [Compound 62, 3-[(3-Chloro-benzyl)-methyl-carbamoyl]-2-hydroxy-acrylic acid]
HIV Integrase [1]
  inhibition at 70 µM: 99%

## O=C(O)/C(O)=C/C(=O)N(Cc1ccc2ccccc2c1)c1ccc(Cl)cc1 [Compound 55, 3-[(4-Chloro-phenyl)-naphthalen-2-ylmethyl-carbamoyl]-2-hydroxy-acrylic acid]
HIV Integrase [1]
  inhibition at 70 µM: 99%

## Cc1ccc(CNC(=O)/C=C(\O)C(=O)O)cc1F [Compound 91, 3-(3-Fluoro-4-methyl-benzylcarbamoyl)-2-hydroxy-acrylic acid]
HIV Integrase [1]
  inhibition at 70 µM: 99%

## O=C(O)/C(O)=C/C(=O)N(CCCc1ccc(-c2ccccc2)cc1)Cc1ccc(F)cc1 [Compound 85, 3-[(3-Biphenyl-4-yl-propyl)-(4-fluoro-benzyl)-carbamoyl]-2-hydroxy-acrylic acid]
HIV Integrase [2]
  inhibition at 70 µM: 94%

## O=C(O)/C(O)=C/C(=O)N(Cc1ccc(F)cc1)c1ccc(F)cc1 [Compound 72, 3-[(4-Fluoro-benzyl)-(4-fluoro-phenyl)-carbamoyl]-2-hydroxy-acrylic acid]
HIV Integrase [1]
  inhibition at 70 µM: 99%

## CN(Cc1ccccc1Cc1ccccc1)C(=O)/C=C(\O)C(=O)O [Compound 84, 3-[(2-Benzyl-benzyl)-methyl-carbamoyl]-2-hydroxy-acrylic acid]
HIV Integrase [1]
  inhibition at 70 µM: 88%

## CC(c1ccc(F)cc1)N(C)C(=O)/C=C(\O)C(=O)O (stereo not shown) [Compound 50, 3-{[1-(4-Fluoro-phenyl)-ethyl]-methyl-carbamoyl}-2-hydroxy-acrylic acid]
HIV Integrase [2]
  inhibition at 70 µM: 99%

## CCCNC(=O)/C(O)=C/C(=O)N(Cc1ccc(F)cc1)Cc1ccc(F)cc1 [Compound 144, 2-Hydroxy-but-2-enedioic acid 4-[bis-(4-fluoro-benzyl)-amide] 1-propylamide]
HIV Integrase [2]
  inhibition at 70 µM: 83%

## Cc1cc(CN(C)C(=O)/C=C(\O)C(=O)O)ccc1F [Compound 61, 3-[(4-Fluoro-3-methyl-benzyl)-methyl-carbamoyl]-2-hydroxy-acrylic acid]
HIV Integrase [1]
  inhibition at 70 µM: 99%

## CN(CCC(c1ccc(F)cc1)c1ccc(F)cc1)C(=O)/C=C(\O)C(=O)O [Compound 80, 3-{[3,3-Bis-(4-fluoro-phenyl)-propyl]-methyl-carbamoyl}-2-hydroxy-acrylic acid]
HIV Integrase [1]
  inhibition at 70 µM: 90%

## CN(Cc1cccc(-c2ccc(F)cc2)c1)C(=O)/C=C(\O)C(=O)O [Compound 63, 3-[(4′-Fluoro-biphenyl-3-ylmethyl)-methyl-carbamoyl]-2-hydroxy-acrylic acid]
HIV Integrase [1]
  inhibition at 70 µM: 98%

## O=C(O)/C(O)=C/C(=O)N(CCOc1ccccc1)Cc1ccc(F)cc1 [Compound 49, 3-[(4-Fluoro-benzyl)-(2-phenoxy-ethyl)-carbamoyl]-2-hydroxy-acrylic acid]
HIV Integrase [2]
  inhibition at 70 µM: 99%

## COc1cc(CN(C)C(=O)/C=C(\O)C(=O)O)ccc1F [Compound 60, 3-[(4-Fluoro-3-methoxy-benzyl)-methyl-carbamoyl]-2-hydroxy-acrylic acid]
HIV Integrase [1]
  inhibition at 70 µM: 99%

## O=C(O)/C(O)=C/C(=O)N(CCCc1ccccc1Cl)Cc1ccc(F)cc1 [Compound 87, 3-[[3-(2-Chloro-phenyl)-propyl]-(4-fluoro-benzyl)-carbamoyl]-2-hydroxy-acrylic acid]
HIV Integrase [2]
  inhibition at 70 µM: 99%

## O=C(/C=C(\O)C(=O)O)NC(c1ccc(Cl)cc1)c1ccc(Cl)cc1 [Compound 92, 3-{[Bis-(4-chloro-phenyl)-methyl]-carbamoyl}-2-hydroxy-acrylic acid]
HIV Integrase [1]
  inhibition at 70 µM: 94%

## CN(Cc1cccc(Oc2ccccc2)c1)C(=O)/C=C(\O)C(=O)O [Compound 64, 2-Hydroxy-3-[methyl-(3-phenoxy-benzyl)-carbamoyl]-acrylic acid]
HIV Integrase [1]
  inhibition at 70 µM: 95%

## CN(Cc1ccc(F)cc1)C(=O)/C=C(\O)C(=O)O [Compound 16, 3-[(4-Fluoro-benzyl)-methyl-carbamoyl]-2-hydroxy-acrylic acid]
HIV Integrase [1]
  inhibition at 70 µM: 97%

## O=C(O)/C(O)=C/C(=O)N(Cc1ccccc1)Cc1ccccc1 [Compound 14, 3-Dibenzylcarbamoyl-2-hydroxy-acrylic acid]
HIV Integrase [1]
  inhibition at 70 µM: 94.5%

## CN(Cc1ccc(F)c(Cl)c1)C(=O)/C=C(\O)C(=O)O [Compound 58, 3-[(3-Chloro-4-fluoro-benzyl)-methyl-carbamoyl]-2-hydroxy-acrylic acid]
HIV Integrase [1]
  inhibition at 70 µM: 99%

## Cc1ccc(CN(C(=O)/C=C(\O)C(=O)O)c2ccc(Cl)cc2)cc1 [Compound 71, 3-[(4-Chloro-phenyl)-(4-methyl-benzyl)-carbamoyl]-2-hydroxy-acrylic acid]
HIV Integrase [1]
  inhibition at 70 µM: 99%

## O=C(CCCCCNC(=O)/C(O)=C/C(=O)N(Cc1ccc(F)cc1)Cc1ccc(F)cc1)NS(=O)(=O)c1ccccc1 [Compound 146, 2-Hydroxy-but-2-enedioic acid 1-[(6-benzenesulfonylamino-6-oxo-hexyl)-amide] 4-[bis-(4-fluoro-benzyl)-amide]]
HIV Integrase [1]
  inhibition at 70 µM: 98%

## O=C(O)/C(O)=C/C(=O)N(CCCc1ccccc1)c1ccc(Cl)cc1 [Compound 56, 3-[(4-Chloro-phenyl)-(3-phenyl-propyl)-carbamoyl]-2-hydroxy-acrylic acid]
HIV Integrase [1]
  inhibition at 70 µM: 88%
